Results taken from the NIST ThermoML archive (doi:10.1016/j.jct.2008.12.018).

Test: activity coefficient (dimensionless); of the first substance listed, at infinite dilution; xn = mol fraction of the nth substance listed
Details: Liquid, Chromatography, x1 = 0

COC(C)(C)C [2-methoxy-2-methylpropane] + CCCCn1cc[n+](C)c1.N#C[S-]
Details | activity coefficient
298.15 K | 12.8
308.15 K | 12.4
318.15 K | 11.9
328.15 K | 11.4
338.15 K | 11.1
348.15 K | 10.7
358.15 K | 10.6
